Reference: patent US11214803B2, “Modulators of YAP1 expression” (Ionis Pharmaceuticals, Inc., priority 2019, dated 2022)
Strand notation (5' to 3'): a small letter for the sugar, then the base; units joined by * are phosphorothioate-linked, units joined directly phosphodiester-linked; [ ] holds rarer units or linkages, { } end groups; capitals alone tell only the bases. e = 2'-O-(2-methoxyethyl) (MOE); k = constrained ethyl (cEt); [5mC] = 5-methylcytosine; d = 2'-deoxy (DNA); m = 2'-O-methyl

System: Yap1 mRNA
Assay: Antisense inhibition of human Yap1 in SNU-449 cells by modified oligonucleotides, single dose (Example 5, RTS36584)
Assay type: cell-based
Summary of the method: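 SNU-449 cells were given 2,000 nM oligonucleotide by free uptake for about 48 h. Yap1 mRNA was then measured by RT-qPCR with primer probe set RTS36584, normalized to total RNA by RIBOGREEN and expressed as percent of untreated control.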

[1] = Table 39, SNU-449 cells, 10,000 cells per well, free uptake, 2,000 nM oligonucleotide, approx. 48 hours, RTS36584, normalized to RIBOGREEN, Yap1 mRNA relative to untreated control
[2] = Table 49, Yap1 mRNA level relative to untreated control, modified oligonucleotides targeting SEQ ID NO.: 1 and 2
[3] = Table 40 (separate experiment), SNU-449 cells, 10,000 cells per well, free uptake, 2,000 nM oligonucleotide, approx. 48 hours, RTS36584, normalized to RIBOGREEN, Yap1 mRNA relative to untreated control
[4] = Table 52, Yap1 mRNA, modified oligonucleotides targeting SEQ ID NO: 1 and 2
[5] = Table 42 (separate experiment), SNU-449 cells, 10,000 cells per well, free uptake, 2,000 nM modified oligonucleotide, approximately 48 hours, RTS36584, normalized to RIBOGREEN, Yap1 mRNA relative to untreated control cells
[6] = Table 48, Yap1 mRNA level relative to untreated control, modified oligonucleotides targeting SEQ ID NO.: 1 and 2
[7] = Table 44 experiment, SNU-449 cells, 10,000 cells per well, free uptake, 2,000 nM, approximately 48 hours, RTS36584, Yap1 mRNA normalized to RIBOGREEN, relative to untreated control cells
[8] = Table 51, Yap1 mRNA remaining as percent of untreated control (UT), SNU-449 cells, single dose
[9] = Table 43 experiment, SNU-449 cells, 10,000 cells per well, free uptake, 2,000 nM, approximately 48 hours, RTS36584, Yap1 mRNA normalized to RIBOGREEN, relative to untreated control cells
[10] = Table 50, Yap1 mRNA remaining as percent of untreated control (UT), SNU-449 cells, single dose
[11] = Table 45, Yap1 mRNA as percent of untreated control, SNU-449 cells, single dose
[12] = Table 46, Yap1 mRNA as percent of untreated control, SNU-449 cells, single dose

Substance: 1198371 (kA*dT*dT*dG*dT*d[5mC]*dT*d[5mC]*dA*dT*dG*k[5mC]*e[5mC]*kT*eT*kA; antisense) [Compound 1198371]
- YAP1 (% UTC) [1]: 15 % UTC

Substance: 1198554 (antisense kT*kT*kA*dG*dA*dG*dT*dA*dT*dG*dT*dG*kG*k[5mC]*kA*eA) [Compound 1198554]
- YAP1 (% UT) [2]: 16 % UT

Substance: 1198767 (kA*eT*kT*d[5mC]*dA*dG*dA*dT*dT*dT*dA*dG*eG*eA*kT*kG; antisense) [Compound 1198767]
- YAP1 (% UTC) [3]: 65 % UTC

Substance: 1200861 (kT*kT*kA*dA*dA*mG*dT*dG*dT*dA*dT*dG*dT*k[5mC]*kA*kG; antisense) [Compound 1200861]
- YAP1 (% UT) [4]: 10 % UT

Substance: 1198237 (AGTGCTTTGGAAGATC; chemistry not fully specified) [Compound 1198237]
- YAP1 (% UTC) [5]: 51 % UTC

Substance: 1198284 (kT*kG*kT*d[5mC]*dT*d[5mC]*dA*dT*dG*d[5mC]*d[5mC]*dT*kT*eA*kT*eA; antisense) [Compound 1198284]
- YAP1 (% UT) [6]: 27 % UT

Substance: 1198440 (kA*dA*dG*dT*dG*dT*dA*dT*dG*dT*d[5mC]*kA*eG*kA*eA*kG) [Compound 1198440]
- YAP1 (% UTC) [3]: 5 % UTC

Substance: 1198450 (kT*dA*dA*dG*dT*dA*dA*dG*dG*dT*dT*kT*e[5mC]*k[5mC]*e[5mC]*kA; antisense) [Compound 1198450]
- YAP1 (% UTC) [1]: 42 % UTC

Substance: 1198518 (kT*kA*dA*dT*dA*dT*dT*dG*d[5mC]*dA*dA*eT*k[5mC]*eT*kG*eT; antisense) [Compound 1198518]
- YAP1 (% UTC) [7]: 71 % UTC

Substance: 1198380 (kA*dG*dA*dG*dT*dA*dT*dG*dT*dG*dG*k[5mC]*eA*kA*eT*kA; antisense) [Compound 1198380]
- YAP1 (% UTC) [1]: 18 % UTC

Substance: 1197310 (kT*kA*kT*dG*mU*dA*dA*dT*dA*dT*dT*dG*d[5mC]*kA*kA*kT; antisense) [Compound 1197310]
- YAP1 (% UT) [8]: 109 % UT

Substance: 1198557 (antisense kA*kT*kA*dT*dT*dA*dG*dA*dG*dT*dA*dT*kG*kT*kG*eG) [Compound 1198557]
- YAP1 (% UT) [2]: 16 % UT

Substance: 1198459 (antisense kA*kA*dA*dT*dT*dG*dT*d[5mC]*dT*d[5mC]*dA*eT*kG*e[5mC]*k[5mC]*eT) [Compound 1198459]
- YAP1 (% UTC) [9]: 28 % UTC

Substance: 1198425 (kA*d[5mC]*dT*d[5mC]*dT*dT*dA*dT*dA*dT*dG*kG*eT*kT*eT*kT; antisense) [Compound 1198425]
- YAP1 (% UTC) [3]: 35 % UTC

Substance: 1200834 (kA*kG*kA*dT*dT*mU*dA*dG*dG*dA*dT*dG*d[5mC]*kA*kT*kG; antisense) [Compound 1200834]
- YAP1 (% UT) [4]: 37 % UT

Substance: 1198527 (kA*kA*dA*dG*dT*dG*dT*dA*dT*dG*dT*e[5mC]*kA*eG*kA*eA; antisense) [Compound 1198527]
- YAP1 (% UTC) [7]: 5 % UTC

Substance: 1197245 (antisense kT*kT*kT*dT*mA*d[5mC]*dA*dT*dT*dA*dG*dG*dA*kA*k[5mC]*kA) [Compound 1197245]
- YAP1 (% UT) [10]: 60 % UT

Substance: 1197304 (k[5mC]*kT*k[5mC]*dT*mU*dA*dT*dA*dT*dG*dG*dT*dT*kT*kT*kG; antisense) [Compound 1197304]
- YAP1 (% UT) [8]: 45 % UT

Substance: 1198611 (antisense kA*kG*kT*dG*dT*dA*dT*dG*dT*d[5mC]*dA*dG*kA*kA*kG*eA) [Compound 1198611]
- YAP1 (% UT) [10]: 7 % UT

Substance: 1200864 (kA*kA*k[5mC]*dT*dT*mU*dA*dA*dA*dG*dT*dG*dT*kA*kT*kG; antisense) [Compound 1200864]
- YAP1 (% UT) [4]: 84 % UT

Substance: 1096369 (antisense kG*kT*kG*d[5mC]*dT*dT*dT*dG*dG*dA*dA*dG*dA*kT*k[5mC]*kT) [Compound 1096369]
- YAP1 (% UT) (Yap1 mRNA, percent of untreated control, modified oligonucleotides targeting SEQ ID NO: 1 and 2, Table 47): 45 % UT

Substance: 1200790 (kT*kG*kG*dA*dA*mA*dT*dT*dG*dT*d[5mC]*dT*d[5mC]*kA*kT*kG; antisense) [Compound 1200790]
- YAP1 (% UT) [4]: 33 % UT

Substance: 1197204 (antisense k[5mC]*kA*kA*d[5mC]*dT*d[5mC]*dT*dT*dA*dT*dA*dT*dG*kG*kT*kT) [Compound 1197204]
- YAP1 (% UT) [6]: 89 % UT

Substance: 1197219 (antisense kA*kA*k[5mC]*dT*dT*dT*dA*dA*dA*dG*dT*dG*dT*kA*kT*kG) [Compound 1197219]
- YAP1 (% UT) [6]: 71 % UT

Substance: 1198446 (kA*dA*d[5mC]*dT*dT*dT*dA*dA*dA*dG*dT*kG*eT*kA*eT*kG; antisense) [Compound 1198446]
- YAP1 (% UTC) [3]: 83 % UTC

Substance: 1198261 (kG*kT*dA*dA*dT*dA*dT*dT*dG*d[5mC]*dA*eA*eT*e[5mC]*kT*kG; antisense) [Compound 1198261]
- YAP1 (% UTC) [9]: 54 % UTC

Substance: 1198326 (kT*kT*kA*dG*dG*dA*dT*dG*d[5mC]*dA*dT*dG*kG*eT*kT*eT; antisense) [Compound 1198326]
- YAP1 (% UT) [6]: 84 % UT

Substance: 1198796 (antisense kA*eG*kT*dA*dA*dG*dG*dT*dT*dT*d[5mC]*d[5mC]*e[5mC]*eA*kG*kA) [Compound 1198796]
- YAP1 (% UTC) [3]: 32 % UTC

Substance: 1198612 (antisense kA*kA*kG*dT*dG*dT*dA*dT*dG*dT*d[5mC]*dA*kG*kA*kA*eG) [Compound 1198612]
- YAP1 (% UT) [10]: 5 % UT

Substance: 1198305 (kG*kA*kG*dG*dT*dA*dT*dA*dA*d[5mC]*dT*dG*kG*eG*k[5mC]*eA; antisense) [Compound 1198305]
- YAP1 (% UT) [2]: 78 % UT

Substance: 1198492 (antisense kG*k[5mC]*dT*dT*dT*dG*dG*dA*dA*dG*dA*eT*k[5mC]*eT*kG*eA) [Compound 1198492]
- YAP1 (% UTC) [7]: 15 % UTC

Substance: 1198895 (kG*kG*dA*dA*dA*dT*dT*dG*dT*d[5mC]*dT*k[5mC]*dA*kT*dG*k[5mC]; antisense) [Compound 1198895]
- YAP1 (% UTC) [11]: 22 % UTC

Substance: 1198293 (kA*kG*kT*dA*dT*dG*dT*dG*dG*d[5mC]*dA*dA*kT*eA*kA*eT; antisense) [Compound 1198293]
- YAP1 (% UT) [6]: 25 % UT

Substance: 1198239 (kA*kG*dG*dA*dT*dG*d[5mC]*dA*dT*dG*dG*eT*eT*eT*kT*kT) [Compound 1198239]
- YAP1 (% UTC) [5]: 39 % UTC

Substance: 1198618 (antisense kA*kA*k[5mC]*dT*dT*dT*dA*dA*dA*dG*dT*dG*kT*kA*kT*eG) [Compound 1198618]
- YAP1 (% UT) [10]: 74 % UT

Substance: 1198914 (kT*kT*dT*dT*dA*d[5mC]*dA*dT*dT*dA*dG*kG*dA*kA*d[5mC]*kA; antisense) [Compound 1198914]
- YAP1 (% UTC) [11]: 68 % UTC

Substance: 1198493 (antisense kT*kG*d[5mC]*dT*dT*dT*dG*dG*dA*dA*dG*eA*kT*e[5mC]*kT*eG) [Compound 1198493]
- YAP1 (% UTC) [7]: 28 % UTC

Substance: 1200823 (k[5mC]*kT*kT*dT*dG*mG*dA*dA*dG*dA*dT*d[5mC]*dT*kG*kA*kA; antisense) [Compound 1200823]
- YAP1 (% UT) [4]: 46 % UT

Substance: 1198735 (kG*eA*kG*dG*dT*dA*dT*dA*dA*d[5mC]*dT*dG*eG*eG*k[5mC]*kA; antisense) [Compound 1198735]
- YAP1 (% UTC) (Table 41, SNU-449 cells, 10,000 cells per well, free uptake, 2,000 nM modified oligonucleotide, approximately 48 hours, RTS36584, normalized to RIBOGREEN, Yap1 mRNA relative to untreated control cells): 34 % UTC

Substance: 1197256 (antisense kA*kT*kT*dT*mA*dG*dG*dA*dT*dG*d[5mC]*dA*dT*kG*kG*kT) [Compound 1197256]
- YAP1 (% UT) [8]: 31 % UT

Substance: 1198615 (antisense kT*kT*kA*dA*dA*dG*dT*dG*dT*dA*dT*dG*kT*k[5mC]*kA*eG) [Compound 1198615]
- YAP1 (% UT) [10]: 10 % UT

Substance: 1198430 (kA*dT*dA*dT*dT*dG*d[5mC]*dA*dA*dT*d[5mC]*kT*eG*kT*e[5mC]*kT) [Compound 1198430]
- YAP1 (% UTC) [1]: 49 % UTC

Substance: 1198619 (kT*kA*kA*dG*dG*dT*dT*dT*d[5mC]*d[5mC]*d[5mC]*dA*kG*kA*kT*eT) [Compound 1198619]
- YAP1 (% UT) [10]: 53 % UT

Substance: 1198274 (kA*kA*d[5mC]*dT*dT*dT*dA*dA*dA*dG*dT*eG*eT*eA*kT*kG; antisense) [Compound 1198274]
- YAP1 (% UTC) [9]: 69 % UTC

Substance: 1198900 (kA*kG*dA*dG*dT*dA*dT*dG*dT*dG*dG*k[5mC]*dA*kA*dT*kA; antisense) [Compound 1198900]
- YAP1 (% UTC) [7]: 11 % UTC

Substance: 1198864 (kA*kT*dA*dT*dT*dG*d[5mC]*dA*dA*dT*d[5mC]*kT*eG*kT*e[5mC]*kT; antisense) [Compound 1198864]
- YAP1 (% UT) [12]: 56 % UT

Substance: 1200850 (kT*kA*kA*dT*dA*mU*dT*dG*d[5mC]*dA*dA*dT*d[5mC]*kT*kG*kT; antisense) [Compound 1200850]
- YAP1 (% UT) [4]: 83 % UT

Substance: 1198881 (kT*kA*dA*dG*dG*dT*dT*dT*d[5mC]*d[5mC]*d[5mC]*kA*eG*kA*eT*kT; antisense) [Compound 1198881]
- YAP1 (% UT) [12]: 36 % UT

Substance: 1198825 (kG*kA*dG*dG*dT*dA*dT*dA*dA*d[5mC]*dT*kG*eG*kG*e[5mC]*kA; antisense) [Compound 1198825]
- YAP1 (% UT) [12]: 64 % UT
